Like-named read-outs stand apart in the source and are kept apart here.
System: RPMI8226 multiple myeloma (MM) human cell lines
Experiment: Cytotoxic effect of CBD, THC and combinations on RPMI8226 cells
Assay type: cell-based
Conditions: for IC50: Homo sapiens; for survival of MM cells (in words): concentration dependent manner, FIG. 2; for survival of RPMIS MM cells: concentration of about 20 μM and higher
Procedure: This example examines the cytotoxic effect of CBD alone, THC alone and combinations of both compounds. The cytotoxic effect of CBD, THC and their combinations in different ratios such as CBD: THC 1:1; CBD: THC 5:1 and CBD: THC 1:5 were evaluated on RPMI8226 multiple myeloma (MM) human cell lines. Reference is now made to FIG. 2 which presents a graph of RPMIS MM cell line survival (%) vs. concentration (μM).

| Structure (SMILES) | IC50 (RPMI-8226, RPMI8226 (RPMIS) MM cells, read-out: dose that caused 50% of MM cell death) [µM] | survival of MM cells (in words) | survival of RPMIS MM cells | IC50 (RPMI-8226, read-out: dose that caused 50% of MM cell death) [µM] |
| --- | --- | --- | --- | --- |
| C=C(C)[C@@H]1CCC(C)=C[C@H]1c1c(O)cc(CCCCC)cc1O [CBD, cannabidiol] | 16 | decreased the survival | about 50% |  |
| CCCCCc1cc(O)c2c(c1)OC(C)(C)[C@@H]1CCC(C)=C[C@@H]21 [THC, Tetrahydrocannabinol] |  | decreased the survival | about 50% | 22 |

Reference: US20180185324A1, “NOVEL CANNABINOID COMBINATION THERAPIES FOR MULTIPLE MYELOMA (MM)” (ONE WORLD CANNABIS LTD, priority 2015, published 2018)
